In US20250090572A1 (priority 2020, published 2025):

Assays:
SARS-CoV-2 spike protein = SARS-CoV-2 spike protein (Severe acute respiratory syndrome coronavirus 2, UniProt P0DTC2); type: binding; settings: spike protein 50 nM, polysaccharide 1 μM
[1] = test system: Pseudovirus particles containing surface Wuhan-Hu-1 SGP; type: cell-based, SARS-CoV-2

| Substance | Binding inhibition (SARS-CoV-2 spike protein; competitive binding inhibition between polysaccharide-spike protein complex and heparin-SPR chip) [%] | competition with immobilized heparin for spike protein binding (SARS-CoV-2 spike protein) | IC50 [1] [µg/mL] |
| --- | --- | --- | --- |
| heparin | 82 ± 7.5 | competed with heparin for spike protein binding | 4.6 |
| pentosan polysulfate [PPS] | – | – | 1.6 |
